Laboratory results: patent publication US10364247B2, “Preparation and use of novel protein kinase inhibitors” (Ruijin Hospital Affiliated to Shanghai Jiao Tong University …, priority 2015, dated 2019)

Experiments:
Test in all cases: KINOMEscan competition binding
FGFR2 = FGFR2 (Homo sapiens, UniProt P21802); details: read-out: Percent Control
In short: (§1)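 Values are % Ctrl from a primary single-concentration (10 μM) competition binding screen; lower % Ctrl indicates tighter binding.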

BRAF = BRAF (Homo sapiens, UniProt P15056); details: read-out: Percent Control
BRAF, sequence (P15056 whole entry): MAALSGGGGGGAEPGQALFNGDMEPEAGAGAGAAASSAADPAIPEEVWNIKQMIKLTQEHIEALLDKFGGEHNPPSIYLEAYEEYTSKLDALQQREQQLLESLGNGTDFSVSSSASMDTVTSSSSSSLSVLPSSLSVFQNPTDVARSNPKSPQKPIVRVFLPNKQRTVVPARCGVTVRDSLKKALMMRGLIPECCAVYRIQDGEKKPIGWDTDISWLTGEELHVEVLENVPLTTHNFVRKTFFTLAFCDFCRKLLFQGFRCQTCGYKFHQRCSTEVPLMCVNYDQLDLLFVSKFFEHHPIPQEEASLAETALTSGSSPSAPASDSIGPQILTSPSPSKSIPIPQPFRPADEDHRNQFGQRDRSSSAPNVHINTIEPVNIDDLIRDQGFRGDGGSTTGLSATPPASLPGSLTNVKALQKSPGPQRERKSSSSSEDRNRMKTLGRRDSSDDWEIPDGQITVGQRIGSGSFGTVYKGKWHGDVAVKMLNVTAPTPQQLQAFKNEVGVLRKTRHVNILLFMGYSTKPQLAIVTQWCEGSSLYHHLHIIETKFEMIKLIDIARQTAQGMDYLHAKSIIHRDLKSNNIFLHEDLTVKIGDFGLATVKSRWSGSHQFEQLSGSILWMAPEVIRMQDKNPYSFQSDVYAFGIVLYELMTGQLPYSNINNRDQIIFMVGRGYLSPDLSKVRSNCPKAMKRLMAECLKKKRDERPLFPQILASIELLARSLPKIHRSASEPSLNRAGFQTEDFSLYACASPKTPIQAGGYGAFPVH
In short: as §1

EPHA2 = EPHA2 (Homo sapiens, UniProt P29317); details: read-out: Percent Control
In short: as §1

[1] = target: T1, ABL1(H396P)-phosphorylated (Homo sapiens, UniProt P00519, H396P); details: read-out: Percent Control
T1 construct: purchased KINOMEscan (panel service)
In short: as §1

TNK1 = target: T2, TNK1 (Homo sapiens, UniProt Q13470); details: read-out: Percent Control
T2 construct: purchased KINOMEscan (screening service)
T2 sequence (Q13470 whole entry): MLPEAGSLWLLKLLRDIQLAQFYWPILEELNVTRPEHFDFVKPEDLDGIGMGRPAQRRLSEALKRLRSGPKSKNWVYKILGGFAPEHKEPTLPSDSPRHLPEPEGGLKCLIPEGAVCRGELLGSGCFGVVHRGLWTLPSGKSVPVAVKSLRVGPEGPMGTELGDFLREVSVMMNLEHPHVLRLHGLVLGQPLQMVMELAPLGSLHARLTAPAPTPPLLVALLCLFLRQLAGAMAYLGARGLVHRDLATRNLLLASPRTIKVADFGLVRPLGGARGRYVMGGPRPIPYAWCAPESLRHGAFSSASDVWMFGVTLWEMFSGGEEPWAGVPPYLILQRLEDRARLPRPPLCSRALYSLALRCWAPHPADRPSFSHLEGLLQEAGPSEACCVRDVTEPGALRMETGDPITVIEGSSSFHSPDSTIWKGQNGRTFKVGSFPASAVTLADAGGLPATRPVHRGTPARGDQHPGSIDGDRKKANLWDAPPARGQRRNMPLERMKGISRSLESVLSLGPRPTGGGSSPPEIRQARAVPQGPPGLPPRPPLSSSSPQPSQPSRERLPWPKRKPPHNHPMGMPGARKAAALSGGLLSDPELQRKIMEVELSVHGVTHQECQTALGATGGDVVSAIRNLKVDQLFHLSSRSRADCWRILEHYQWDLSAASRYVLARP
In short: as §1

ERBB4 = ERBB4 (Homo sapiens, UniProt Q15303); details: read-out: Percent Control
ERBB4, sequence (Q15303 26-1308): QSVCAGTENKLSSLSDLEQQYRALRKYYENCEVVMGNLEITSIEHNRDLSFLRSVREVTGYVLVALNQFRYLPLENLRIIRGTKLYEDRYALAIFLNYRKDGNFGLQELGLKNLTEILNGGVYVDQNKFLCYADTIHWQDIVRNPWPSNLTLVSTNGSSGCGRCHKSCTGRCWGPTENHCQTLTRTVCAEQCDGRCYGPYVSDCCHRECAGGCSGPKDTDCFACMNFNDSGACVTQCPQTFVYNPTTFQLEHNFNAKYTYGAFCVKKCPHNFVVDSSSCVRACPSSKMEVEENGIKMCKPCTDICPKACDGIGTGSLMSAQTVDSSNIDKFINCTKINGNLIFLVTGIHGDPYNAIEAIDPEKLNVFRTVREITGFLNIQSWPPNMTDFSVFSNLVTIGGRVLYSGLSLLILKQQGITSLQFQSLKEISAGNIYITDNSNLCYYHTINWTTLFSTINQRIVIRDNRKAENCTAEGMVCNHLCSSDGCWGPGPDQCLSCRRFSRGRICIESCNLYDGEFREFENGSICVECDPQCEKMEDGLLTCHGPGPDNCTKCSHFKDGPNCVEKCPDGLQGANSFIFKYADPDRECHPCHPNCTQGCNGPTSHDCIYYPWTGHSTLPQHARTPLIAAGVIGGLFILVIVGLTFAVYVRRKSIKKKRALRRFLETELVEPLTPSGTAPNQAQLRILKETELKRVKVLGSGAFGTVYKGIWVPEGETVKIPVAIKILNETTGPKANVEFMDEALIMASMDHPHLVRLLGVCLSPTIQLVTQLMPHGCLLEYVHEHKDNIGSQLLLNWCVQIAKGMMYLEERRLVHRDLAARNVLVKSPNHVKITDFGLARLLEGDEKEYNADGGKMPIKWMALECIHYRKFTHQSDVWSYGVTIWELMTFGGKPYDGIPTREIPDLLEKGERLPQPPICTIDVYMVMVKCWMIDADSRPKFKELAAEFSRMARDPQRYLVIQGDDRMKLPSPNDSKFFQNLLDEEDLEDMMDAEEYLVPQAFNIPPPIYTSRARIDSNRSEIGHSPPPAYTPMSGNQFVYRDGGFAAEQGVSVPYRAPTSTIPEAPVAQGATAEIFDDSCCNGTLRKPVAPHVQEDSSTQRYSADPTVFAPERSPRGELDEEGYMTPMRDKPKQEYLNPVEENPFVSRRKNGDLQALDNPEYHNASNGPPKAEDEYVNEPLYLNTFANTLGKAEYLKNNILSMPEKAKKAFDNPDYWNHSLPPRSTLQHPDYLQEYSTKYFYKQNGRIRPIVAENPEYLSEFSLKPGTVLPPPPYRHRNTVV
In short: as §1

EGFR(G719C) = EGFR(G719C) (Homo sapiens, UniProt P00533, G719C); details: read-out: Percent Control
EGFR(G719C), sequence (P00533 25-1210 G719C): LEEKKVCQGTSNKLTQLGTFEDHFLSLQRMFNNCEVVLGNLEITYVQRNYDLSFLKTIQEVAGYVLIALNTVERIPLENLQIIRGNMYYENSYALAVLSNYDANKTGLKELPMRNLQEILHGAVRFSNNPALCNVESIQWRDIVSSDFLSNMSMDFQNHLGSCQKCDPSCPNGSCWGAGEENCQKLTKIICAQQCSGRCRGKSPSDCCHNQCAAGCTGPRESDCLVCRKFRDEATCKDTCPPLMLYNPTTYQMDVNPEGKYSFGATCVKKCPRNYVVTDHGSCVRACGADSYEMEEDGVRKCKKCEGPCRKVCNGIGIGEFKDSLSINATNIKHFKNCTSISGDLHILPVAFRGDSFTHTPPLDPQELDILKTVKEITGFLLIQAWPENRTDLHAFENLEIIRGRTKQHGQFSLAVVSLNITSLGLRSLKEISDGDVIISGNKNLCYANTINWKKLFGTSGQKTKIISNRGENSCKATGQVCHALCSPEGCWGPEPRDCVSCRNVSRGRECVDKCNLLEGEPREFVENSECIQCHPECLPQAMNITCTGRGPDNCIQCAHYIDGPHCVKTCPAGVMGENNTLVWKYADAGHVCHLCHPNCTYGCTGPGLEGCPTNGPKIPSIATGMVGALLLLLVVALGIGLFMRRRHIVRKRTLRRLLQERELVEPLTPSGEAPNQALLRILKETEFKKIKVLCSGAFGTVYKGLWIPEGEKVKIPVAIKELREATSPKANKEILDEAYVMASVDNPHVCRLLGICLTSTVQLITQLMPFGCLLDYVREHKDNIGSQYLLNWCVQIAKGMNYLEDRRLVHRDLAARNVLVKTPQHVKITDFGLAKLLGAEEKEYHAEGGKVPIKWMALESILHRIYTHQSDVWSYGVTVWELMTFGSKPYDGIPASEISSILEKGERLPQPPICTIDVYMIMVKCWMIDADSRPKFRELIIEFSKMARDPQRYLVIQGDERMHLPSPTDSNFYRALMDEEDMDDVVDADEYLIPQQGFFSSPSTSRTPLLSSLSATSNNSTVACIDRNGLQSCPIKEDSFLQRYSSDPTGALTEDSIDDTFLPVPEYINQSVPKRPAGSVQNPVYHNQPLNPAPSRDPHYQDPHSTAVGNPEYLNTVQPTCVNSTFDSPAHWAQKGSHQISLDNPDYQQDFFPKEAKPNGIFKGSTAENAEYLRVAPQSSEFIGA
In short: as §1

FES = FES (Homo sapiens, UniProt P07332); details: read-out: Percent Control
In short: as §1

EPHA4 = EPHA4 (Homo sapiens, UniProt P54764); details: read-out: Percent Control
In short: as §1

MUSK = MUSK (Homo sapiens, UniProt O15146); details: read-out: Percent Control
In short: as §1

FGR = FGR (Homo sapiens, UniProt P09769); details: read-out: Percent Control
In short: as §1

TAK1 = target: T3, TAK1 (Homo sapiens, UniProt O43318); details: TAK1 (Entrez MAP3K7), read-out: Percent Control
T3 construct: purchased KINOMEscan (panel service)
In short: as §1

DRAK2 = target: T4, DRAK2 (Homo sapiens, UniProt O94768); details: DRAK2 (Entrez STK17B), read-out: Percent Control
T4 construct: purchased KINOMEscan (screening service)
In short: as §1

CDC2L2 = target: T5, CDC2L2 (Homo sapiens, UniProt Q9UQ88); details: read-out: Percent Control
T5 construct: purchased KINOMEscan (screening platform)
In short: as §1

SIK = SIK (Homo sapiens, UniProt P57059); details: SIK (Entrez SIK1), read-out: Percent Control
In short: as §1

LOK = LOK (Homo sapiens, UniProt O94804); details: LOK (Entrez STK10), read-out: Percent Control
In short: as §1

EPHB3 = EPHB3 (Homo sapiens, UniProt P54753); details: read-out: Percent Control
In short: as §1

MAP4K4 = MAP4K4 (Homo sapiens, UniProt O95819); details: read-out: Percent Control
In short: as §1

FLT3(R834Q) = target: T6, FLT3(R834Q) (Homo sapiens, UniProt P36888, R834Q); details: read-out: Percent Control
T6 construct: purchased KINOMEscan (screening service)
In short: as §1

[2] = target: ABL1(E255K)-phosphorylated (Homo sapiens, UniProt P00519, E255K); details: read-out: Percent Control
In short: as §1

JNK1 = target: T7, JNK1 (Homo sapiens, UniProt P45983); details: JNK1 (Entrez MAPK8), read-out: Percent Control
T7 construct: purchased KINOMEscan (screening platform)
In short: as §1

TIE1 = TIE1 (Homo sapiens, UniProt P35590); details: read-out: Percent Control
In short: as §1

EPHB6 = EPHB6 (Homo sapiens, UniProt O15197); details: read-out: Percent Control
EPHB6, sequence (O15197 32-1021): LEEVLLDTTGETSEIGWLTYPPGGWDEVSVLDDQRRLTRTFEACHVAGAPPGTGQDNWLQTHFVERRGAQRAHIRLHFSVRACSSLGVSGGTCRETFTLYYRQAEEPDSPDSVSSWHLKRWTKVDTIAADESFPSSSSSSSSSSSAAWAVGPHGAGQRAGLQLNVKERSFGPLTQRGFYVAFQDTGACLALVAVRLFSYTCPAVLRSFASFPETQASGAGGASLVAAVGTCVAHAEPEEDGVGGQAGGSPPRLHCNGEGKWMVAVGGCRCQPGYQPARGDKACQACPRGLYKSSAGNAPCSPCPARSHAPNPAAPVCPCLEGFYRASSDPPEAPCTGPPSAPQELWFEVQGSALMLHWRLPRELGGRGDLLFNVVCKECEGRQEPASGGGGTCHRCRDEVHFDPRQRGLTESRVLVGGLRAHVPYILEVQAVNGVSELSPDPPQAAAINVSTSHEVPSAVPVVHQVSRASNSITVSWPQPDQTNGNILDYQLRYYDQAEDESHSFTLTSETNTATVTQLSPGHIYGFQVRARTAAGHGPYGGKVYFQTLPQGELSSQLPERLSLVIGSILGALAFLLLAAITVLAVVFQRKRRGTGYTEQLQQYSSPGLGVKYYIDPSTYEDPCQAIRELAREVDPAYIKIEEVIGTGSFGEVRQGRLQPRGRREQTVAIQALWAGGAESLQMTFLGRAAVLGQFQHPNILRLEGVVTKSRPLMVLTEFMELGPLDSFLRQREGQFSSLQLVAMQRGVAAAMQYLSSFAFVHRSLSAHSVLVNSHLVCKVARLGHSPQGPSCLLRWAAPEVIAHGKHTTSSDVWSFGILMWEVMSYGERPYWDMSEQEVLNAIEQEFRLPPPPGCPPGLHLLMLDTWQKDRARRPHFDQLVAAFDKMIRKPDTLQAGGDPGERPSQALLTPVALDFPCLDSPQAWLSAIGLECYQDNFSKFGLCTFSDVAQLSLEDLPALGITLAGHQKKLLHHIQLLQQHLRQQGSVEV
In short: as §1

[3] = target: ABL1(Q252H)-nonphosphorylated (Homo sapiens, UniProt P00519, Q252H); details: read-out: Percent Control
In short: as §1

KIT(L576P) = KIT(L576P) (Homo sapiens, UniProt P10721, L576P); details: read-out: Percent Control
In short: as §1

FRK = FRK (Homo sapiens, UniProt P42685); details: read-out: Percent Control
In short: as §1

[4] = target: T8, JAK2(JH1domain-catalytic) (Homo sapiens, UniProt O60674); details: read-out: Percent Control
T8 construct: JAK2(JH1domain-catalytic)
In short: as §1

SRC = target: T9, SRC (Homo sapiens, UniProt P12931); details: read-out: Percent Control
T9 construct: purchased KINOMEscan (panel service)
In short: as §1

ASK2 = target: T10, ASK2 (Homo sapiens, UniProt O95382); details: ASK2 (Entrez MAP3K6), read-out: Percent Control
T10 construct: purchased KINOMEscan (screening service)
In short: as §1

SYK = SYK (Homo sapiens, UniProt P43405); details: read-out: Percent Control
In short: as §1

MAP3K3 = MAP3K3 (Homo sapiens, UniProt Q99759); details: read-out: Percent Control
In short: as §1

[5] = target: T11, JAK1(JH1domain-catalytic) (Homo sapiens, UniProt P23458); details: read-out: Percent Control
T11 construct: JAK1(JH1domain-catalytic)
In short: as §1

BRK = BRK (Homo sapiens, UniProt Q13882); details: BRK (Entrez PTK6), read-out: Percent Control
In short: as §1

ERBB2 = ERBB2 (Homo sapiens, UniProt P04626); details: read-out: Percent Control
In short: as §1

ALK = target: T12, ALK (Homo sapiens, UniProt Q9UM73); details: read-out: Percent Control
T12 construct: purchased KINOMEscan (screening service)
In short: as §1

ABL1-phosphorylated = ABL1-phosphorylated (Homo sapiens, UniProt P00519); details: read-out: Percent Control
In short: as §1

TXK = target: T13, TXK (Homo sapiens, UniProt P42681); details: read-out: Percent Control
T13 construct: purchased KINOMEscan (panel service)
In short: as §1

Cc1ccc(Nc2ncc3c(n2)N(C)CN(c2cc(NC(=O)c4cccc(C(F)(F)F)c4)ccc2C)C3)cn1 [IA-9, N-(4-methyl-3-(1-methyl-7-((6-methylpyridin-3-yl)amino)-1,4-dihydropyrimido[4,5-d]pyrimidin-3(2H)-yl)phenyl)-3-(trifluoromethyl)benzamide]
remaining binding at 10 µM (FGFR2): 2.7% | remaining binding at 10 µM (BRAF): 0.5% | remaining binding at 10 µM (EPHA2): 0.2% | remaining binding at 10 µM [1]: 0.15% | remaining binding at 10 µM (TNK1): 12% | remaining binding at 10 µM (ERBB4): 0% | remaining binding at 10 µM (EGFR(G719C)): 0% | remaining binding at 10 µM (FES): 0.7% | remaining binding at 10 µM (EPHA4): 0% | remaining binding at 10 µM (MUSK): 6.8% | remaining binding at 10 µM (FGR): 0% | remaining binding at 10 µM (TAK1): 0.1% | remaining binding at 10 µM (DRAK2): 17% | remaining binding at 10 µM (CDC2L2): 28% | remaining binding at 10 µM (SIK): 0.35% | remaining binding at 10 µM (LOK): 0% | remaining binding at 10 µM (EPHB3): 0% | remaining binding at 10 µM (MAP4K4): 0.6% | remaining binding at 10 µM (FLT3(R834Q)): 20% | remaining binding at 10 µM [2]: 1.2% | remaining binding at 10 µM (JNK1): 28% | remaining binding at 10 µM (TIE1): 5.6% | remaining binding at 10 µM (EPHB6): 0.3% | remaining binding at 10 µM [3]: 0.75% | remaining binding at 10 µM (KIT(L576P)): 1.2% | remaining binding at 10 µM (FRK): 0% | remaining binding at 10 µM [4]: 0.35% | remaining binding at 10 µM (SRC): 0.15% | remaining binding at 10 µM (ASK2): 7% | remaining binding at 10 µM (SYK): 4.4% | remaining binding at 10 µM (MAP3K3): 1.3% | remaining binding at 10 µM [5]: 2% | remaining binding at 10 µM (BRK): 0.9% | remaining binding at 10 µM (ERBB2): 0% | remaining binding at 10 µM (ALK): 22% | remaining binding at 10 µM (ABL1-phosphorylated): 0.3% | remaining binding at 10 µM (TXK): 0%
